Data as given in patent publication US5521163A, “Antiviral pyrimidine nucleosides and methods for using same” (University of Birmingham, priority 1994, dated 1996).

What was measured:
VZV = experiment: Plaque reduction assay, VZV clinical isolates in MRC-5 cells; type: cell-based, varicella zoster virus; conditions: read-out: IC50 VZV, Table 1, β-anomers
Protocol: Clinical isolates of varicella zoster virus (VZV) were assayed in monolayers of MRC-5 cells. MRC-5 cells are derived from human embyonic lung tissue. A plaque reduction assay was used in which a suspension of the virus stock was used to infect monolayers of the cells in multiwell trays. a range of concentrations of the compound under test of known molarity was added to the wells. Plaque numbers at each concnetration were expressed as percentages of the control and a dose response curve was constructed. From these curves the 50% inhibitory concentration of each drug was determined.

HSV2 = experiment: Plaque reduction assay, HSV-2 (strain 186) in cell monolayers; type: cell-based, Herpes Simplex Virus type 2; conditions: Human alphaherpesvirus 2, Table 1; β-anomers; HSV-2 strain 186, plaque reduction
Protocol: (§1) Herpes Simplex Virus types 1 (HSV 1) and 2 (HSV2) were assayed in monolayers of Veto cells in multiwell trays. The virus strains used were SC16 and 186 for HSV-1 and HSV-2 respectively. Activity of compounds was determined in the plaque reduction assay, in which a cell monolayer was infected with a suspension of the appropirate HSV, and then overlaid with nutrient agarose in the form of a gel to ensure that there was no spread of virus throughout the culture. A range of concentrations of compound of known molarity was incorporated in the nutrient agarose overlay. Plaque numbers at each concentration were expressed as percentages of the control and a dose-response curve was drawn. From this curve the 50% inhibitory concentration (IC50) was estimated to be 0.66 μm for the compound of formula (I) in which X represents a 2-bromovinyl group.

HSV1 = experiment: Plaque reduction assay, HSV-1 (strain SC16) in cell monolayers; type: cell-based, Herpes Simplex Virus type 1; conditions: Human alphaherpesvirus 1, SC16, Table 1; β-anomers; HSV-1 strain SC16, plaque reduction
Protocol: as §1

Herpes Simplex Virus = experiment: Plaque reduction assay, HSV (type not given); type: cell-based, Herpes Simplex Virus types 1 (HSV 1) and 2 (HSV2); conditions: read-out: 50% inhibitory concentration (IC50)
Protocol: as §1

Compound | IC50 (VZV) [nM] | IC50 (HSV2) [nM] | IC50 (HSV1) [nM] | IC50 (Herpes Simplex Virus) [nM]
CCc1cn([C@H]2C[C@H](O)[C@@H](CO)S2)c(=O)[nH]c1=O [X=CH2 CH3, Y=OH, 2'-Deoxy-5-ethyl-4'-thiouridine] | 990 |  |  | 
Nc1nc(=O)n([C@H]2C[C@H](O)[C@@H](CO)S2)cc1/C=C/Br [X=CH=CHBr, Y=NH2, 2'-Deoxy-5-E-(2-bromovinyl)-4'-thiocytidine] |  | > 10000 |  | 
O=c1[nH]c(=O)n([C@H]2C[C@H](O)[C@@H](CO)S2)cc1/C=C/Br [X=CH=CHBr, Y=OH, E-5-(2-bromovinyl)-2'-deoxy-4'-thiouridine] |  | 10000 to 100000 | 600 | 660
